Values of other authors as cited in patent US7611715B2, “Agaricus extract for preventing the induction or metastasis of cancer” (SSI Co., Ltd., priority 2002, dated 2009).

Conditions: calculated

For `CCOC(N)=O` [Urethane, ethyl carbamate], the safety dose (virtually safe dose, VSD) in human for liver cancer is listed as 7.2e-05 mg/kg body weight.
